{
  "source": "ChEMBL document CHEMBL1125816",
  "about": "“[123I]-2 beta-carbomethoxy-3 beta-(4-iodophenyl)tropane: high-affinity SPECT radiotracer of monoamine reuptake sites in brain” (J Med Chem, 1991)",
  "target": "Sodium-dependent serotonin transporter (Rattus norvegicus, UniProt P31652)",
  "sequence (P31652 whole entry)": "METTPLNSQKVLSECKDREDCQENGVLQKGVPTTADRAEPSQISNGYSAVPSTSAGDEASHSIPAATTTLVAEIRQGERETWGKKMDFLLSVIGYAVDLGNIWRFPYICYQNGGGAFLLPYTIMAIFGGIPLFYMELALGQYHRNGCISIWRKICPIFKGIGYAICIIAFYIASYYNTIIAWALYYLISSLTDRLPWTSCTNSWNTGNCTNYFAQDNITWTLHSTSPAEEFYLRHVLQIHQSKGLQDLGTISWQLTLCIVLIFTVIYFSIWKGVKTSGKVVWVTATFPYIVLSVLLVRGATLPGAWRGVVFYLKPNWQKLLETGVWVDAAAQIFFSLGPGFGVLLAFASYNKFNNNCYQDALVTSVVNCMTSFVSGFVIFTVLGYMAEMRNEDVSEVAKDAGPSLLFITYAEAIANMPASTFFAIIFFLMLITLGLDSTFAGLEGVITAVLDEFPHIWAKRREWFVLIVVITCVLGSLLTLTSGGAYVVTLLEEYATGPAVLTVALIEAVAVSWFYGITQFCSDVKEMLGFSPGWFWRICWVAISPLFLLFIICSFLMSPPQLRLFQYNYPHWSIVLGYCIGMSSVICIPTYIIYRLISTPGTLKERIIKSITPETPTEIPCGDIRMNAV",
  "assay": "Compound was tested for binding affinity to Serotonin transporter sites in homogenates prepared from rat cortical membranes using [3H]paroxetine as radioligand",
  "data": [
    {"smiles": "COC(=O)[C@H]1[C@@H](c2ccc(F)cc2)C[C@H]2CC[C@H]1N2C", "values": [
      {"measurement": "IC50", "result": 479, "unit": "nM"}
    ]},
    {"smiles": "COC(=O)[C@@H]1C2CC[C@H](C[C@@H]1c1ccc(I)cc1)N2C", "values": [
      {"measurement": "IC50", "result": 3.78, "unit": "nM"}
    ]}
  ]
}
